Results from patent US20040171073A1, “Compounds for modulation of cholesterol transport” (Massachusetts Institute of Technology, priority 2002, published 2004).

Molecular target: T1, murine SR-BI (Mus musculus, UniProt Q61009)
T1 construct: expressed in transfected cells; host or cells: ldlA-7 (LDL receptor deficient Chinese hamster ovary cells)
T1 sequence (Q61009 1-509): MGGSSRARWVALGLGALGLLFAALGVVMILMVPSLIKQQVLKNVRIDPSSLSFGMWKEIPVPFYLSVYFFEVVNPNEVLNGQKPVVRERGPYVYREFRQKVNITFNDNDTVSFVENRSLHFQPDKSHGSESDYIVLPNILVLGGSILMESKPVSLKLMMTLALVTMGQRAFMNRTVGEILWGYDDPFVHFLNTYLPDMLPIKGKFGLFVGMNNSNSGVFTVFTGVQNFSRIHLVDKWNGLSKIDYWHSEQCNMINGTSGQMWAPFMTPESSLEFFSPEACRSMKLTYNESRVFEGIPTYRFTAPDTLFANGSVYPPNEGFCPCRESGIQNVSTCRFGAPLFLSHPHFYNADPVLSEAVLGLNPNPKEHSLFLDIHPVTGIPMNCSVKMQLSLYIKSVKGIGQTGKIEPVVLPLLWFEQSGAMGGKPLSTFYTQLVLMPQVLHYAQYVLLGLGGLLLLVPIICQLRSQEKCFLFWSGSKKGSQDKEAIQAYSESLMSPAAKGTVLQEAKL
Assay: Uptake of DiI from DiI-HDL by ldlA[mSR-BI] cells (high throughput screen and concentration dependence)
Assay type: cell-based

[1] = DiI uptake from DiI-HDL, compounds at nominal 10 micromolar, ldlA[mSR-BI] cells

In the case of `C=C(N/N=C(\C)c1ccccc1C(=O)O)c1ccccc1` [MIT 9952-56], the “ENDOHDL Test 1” value is reported as 1.26 and the “ENDOHDL Test 2” value is reported as 1.26.

With `CO/C(=N\C(NC(=S)Nc1ccccc1)C(Cl)(Cl)Cl)c1ccc(C)cc1` (stereo not drawn) [MIT 9952-203] the “ENDOHDL Test 1” value was 0.73 and the “ENDOHDL Test 2” value was 0.7.

With `COc1c(Cl)cc(Cl)cc1C(=O)Nc1ccc(Br)cc1` [MIT 9952-155] the “ENDOHDL Test 1” value was 0.69 and the “ENDOHDL Test 2” value was 0.47.

With `Br.CCOC(=O)c1c(CSC(=N)N)n(C)c2cc(Br)c(OC(C)=O)cc12` [MIT 9952-146] the “ENDOHDL Test 1” value was 0.62 and the “ENDOHDL Test 2” value was 0.71.

In the case of `COC(=O)Nc1cc([N+](=O)[O-])cc([N+](=O)[O-])c1Br` [MIT 9952-79], the “ENDOHDL Test 1” value is reported as 0.61 and the “ENDOHDL Test 2” value is reported as 0.63.

In the case of `Cc1ccc(C(C)C)cc1OCC(=O)N/N=C\c1cc([N+](=O)[O-])ccc1O` [MIT 9952-154], the “ENDOHDL Test 1” value is reported as 0.47 and the “ENDOHDL Test 2” value is reported as 0.45.

With `CC(C)(C)c1ccc(C(=O)Nc2cccc(NC(=O)c3cccc([N+](=O)[O-])c3)c2)cc1` [MIT 9952-331] the “ENDOHDL Test 1” value [1] was 0.63 and the “ENDOHDL Test 2” value [1] was 0.35.

`CCCCCCC1CCC/C1=N\NC(N)=S` (stereo not drawn) [MIT 9952-185] was tested, and the “ENDOHDL Test 1” value was 0.53 and the “ENDOHDL Test 2” value was 0.46.

With `Cc1cccc(C(=O)N/N=C/c2ccccc2Cl)c1` [MIT 9952-194] the “ENDOHDL Test 1” value was 0.76 and the “ENDOHDL Test 2” value was 0.46.

In the case of `O=C(CC1=CCCCC1)Nc1cc([N+](=O)[O-])ccc1Cl` [MIT 9952-46], the “ENDOHDL Test 1” value is reported as 1.32 and the “ENDOHDL Test 2” value is reported as 1.18.

In the case of `Cc1ccc(C(C)C)c(OCC(=O)Nc2cc([N+](=O)[O-])ccc2C)c1` [MIT 9952-153], the “ENDOHDL Test 1” value is reported as 0.6 and the “ENDOHDL Test 2” value is reported as 0.57.

For `O=C(O)c1cc(C(=O)O)nc(C(=O)O)c1` [MIT 9952-319], the “ENDOHDL Test 1” value [1] was 1.13 and the “ENDOHDL Test 2” value [1] was 1.17.

With `COC(=O)/C=C1/Nc2ccccc2OC1=O` [MIT 9952-151] the “ENDOHDL Test 1” value was 1.22 and the “ENDOHDL Test 2” value was 1.36.

In the case of `O=C(COc1ccc(Cl)cc1)N/N=C/c1ccc(Cl)cc1` [MIT 9952-31], the “ENDOHDL Test 1” value is reported as 1.33 and the “ENDOHDL Test 2” value is reported as 1.17.

`O=C(O)CSC1CCCC/C1=N\Nc1ccc([N+](=O)[O-])cc1[N+](=O)[O-]` (stereo not drawn) [MIT 9952-84] was tested, and the “ENDOHDL Test 1” value was 0.74 and the “ENDOHDL Test 2” value was 0.66.

For `O=C(/C=C/c1cccc([N+](=O)[O-])c1)Nc1cccc(C(F)(F)F)c1` [MIT 9952-290], the “ENDOHDL Test 1” value [1] was 0.52 and the “ENDOHDL Test 2” value [1] was 0.56.

With `CCOc1ccc2nc3cc(/N=N/c4ccc(N)nc4N)ccc3c(N)c2c1` [MIT 9952-320] the “ENDOHDL Test 1” value [1] was 0.54 and the “ENDOHDL Test 2” value [1] was 0.83.

For `CCNc1ccc(N)c(C)c1C.O=S(=O)(O)O` [MIT 9952-74], the “ENDOHDL Test 1” value was 0.71 and the “ENDOHDL Test 2” value was 0.69.

With `CCOC(C(=O)OC(C)CN(C)C)(c1ccccc1)c1ccccc1.Cl` (stereo not drawn) [MIT 9952-128] the “ENDOHDL Test 1” value was 1.23 and the “ENDOHDL Test 2” value was 1.36.

In the case of `COc1ccc(COCC(Cl)CN2CCCCC2)cc1OC.Cl` (stereo not drawn) [MIT 9952-159], the “ENDOHDL Test 1” value is reported as 1.28 and the “ENDOHDL Test 2” value is reported as 1.23.

With `c1ccc(-c2cc3c(ccc4nonc43)[nH]2)cc1` [MIT 9952-262] the “ENDOHDL Test 1” value was 0.53 and the “ENDOHDL Test 2” value was 0.45.

With `CCCCOCCC1CCC/C1=N\NC(N)=S` (stereo not drawn) [MIT 9952-249] the “ENDOHDL Test 1” value was 0.7 and the “ENDOHDL Test 2” value was 0.57.

In the case of `O=[N+]([O-])c1cccc(/C=N\Nc2nc(Nc3ccc(Cl)cc3)nc(N3CCOCC3)n2)c1` [MIT 9952-209], the “ENDOHDL Test 1” value is reported as 0.46 and the “ENDOHDL Test 2” value is reported as 0.59.

With `O=C1CC(N2CCOCC2)C(=O)N1c1ccc(Br)cc1` (stereo not drawn) [MIT 9952-3] the “ENDOHDL Test 1” value was 1.32 and the “ENDOHDL Test 2” value was 1.17.

`CN(N)c1nc(-c2ccccc2)cc(-c2ccccc2)n1` [MIT 9952-252] was tested, and the “ENDOHDL Test 1” value was 0.58 and the “ENDOHDL Test 2” value was 0.39.

With `COc1ccc([N+](=O)[O-])cc1NC(=O)c1ccccc1` [MIT 9952-238] the “ENDOHDL Test 1” value was 0.61 and the “ENDOHDL Test 2” value was 0.6.

In the case of `Cc1ccc2c(c1)/C(=C/c1ccc([N+](=O)[O-])cc1)c1cccnc1-2` [MIT 9952-246], the “ENDOHDL Test 1” value is reported as 0.56 and the “ENDOHDL Test 2” value is reported as 0.52.

In the case of `C/C(CCS(=O)(=O)c1ccc(C)cc1)=N\NC(N)=S` [MIT 9952-333], the “ENDOHDL Test 1” value [1] is reported as 0.56 and the “ENDOHDL Test 2” value [1] is reported as 0.59.

In the case of `Cc1c([N+](=O)[O-])cc(C(=O)Nc2cccc(-c3nc4ccccc4o3)c2)cc1[N+](=O)[O-]` [MIT 9952-210], the “ENDOHDL Test 1” value is reported as 0.59 and the “ENDOHDL Test 2” value is reported as 0.56.

With `O=C(NC(NC(=S)Nc1ccc2ccccc2c1)C(Cl)(Cl)Cl)c1cccc([N+](=O)[O-])c1` (stereo not drawn) [MIT 9952-216] the “ENDOHDL Test 1” value was 0.54 and the “ENDOHDL Test 2” value was 0.58.

With `CCOC(=O)c1sc(-c2ccccc2)nc1-c1ccc([N+](=O)[O-])cc1` [MIT 9952-165] the “ENDOHDL Test 1” value was 0.57 and the “ENDOHDL Test 2” value was 0.6.

`CC(C)=C/C(=N\Nc1ccc([N+](=O)[O-])cc1[N+](=O)[O-])C1CC=CCC1` (stereo not drawn) [MIT 9952-288] was tested, and the “ENDOHDL Test 1” value [1] was 0.59 and the “ENDOHDL Test 2” value [1] was 0.52.

`O=C(NNC(=O)c1cccc2ccccc12)c1ccc(NC(=O)c2cccc3ccccc23)cc1` [MIT 9952-217] was tested, and the “ENDOHDL Test 1” value was 0.57 and the “ENDOHDL Test 2” value was 0.53.

In the case of `CCn1c2ccccc2c2cc(/C=N/NC(N)=S)ccc21` [MIT 9952-330], the “ENDOHDL Test 1” value [1] is reported as 0.59 and the “ENDOHDL Test 2” value [1] is reported as 0.56.

With `COc1ccccc1NC(=O)c1ccc(OC)c(OC)c1` [MIT 9952-269] the “ENDOHDL Test 1” value was 0.74 and the “ENDOHDL Test 2” value was 0.66.

For `CSc1sc(SC)c(C[n+]2ccccc2)c1C[n+]1ccccc1.[I-].[I-]` [MIT 9952-85], the “ENDOHDL Test 1” value was 0.56 and the “ENDOHDL Test 2” value was 0.68.

For `Cc1cc(C)c(NC(=O)C2CCCN2N)c(C)c1` (stereo not drawn) [MIT 9952-276], the “ENDOHDL Test 1” value was 0.73 and the “ENDOHDL Test 2” value was 0.68.

With `COC(=O)Cn1c2c(c3cc(C)ccc31)CCCC2NC(C)c1ccccc1` (stereo not drawn) [MIT 9952-180] the “ENDOHDL Test 1” value was 0.43 and the “ENDOHDL Test 2” value was 0.45.

`NC(=S)Nc1ccc2c(c1)Nc1ccccc1CC2` [MIT 9952-175] was tested, and the “ENDOHDL Test 1” value was 0.42 and the “ENDOHDL Test 2” value was 0.51.

`CCN(CC(O)COc1ccccc1C(C)=O)S(=O)(=O)O.[Na+]` (stereo not drawn) [MIT 9952-62] was tested, and the “ENDOHDL Test 1” value was 1.28 and the “ENDOHDL Test 2” value was 1.24.

In the case of `Nc1ccc(C(=O)Nc2ccc(-c3nc4ccc(NC(=O)c5ccc(N)cc5)c(Cl)c4[nH]3)cc2Cl)cc1` [MIT 9952-334], the “ENDOHDL Test 1” value [1] is reported as 0.57 and the “ENDOHDL Test 2” value [1] is reported as 0.55.

In the case of `CC1(C)C(C(=O)OCC(=O)c2ccc([N+](=O)[O-])cc2)CCC1C(=O)OCC(=O)c1ccc([N+](=O)[O-])cc1` (stereo not drawn) [MIT 9952-129], the “ENDOHDL Test 1” value is reported as 0.57 and the “ENDOHDL Test 2” value is reported as 0.54.

With `CCOC(=O)c1c(C)n(-c2ccccc2)c2ccc(NS(=O)(=O)c3ccccc3)cc12` [MIT 9952-71] the “ENDOHDL Test 1” value was 0.62 and the “ENDOHDL Test 2” value was 0.55.

For `O=C(Cl)c1ccccc1NS(=O)(=O)/C=C/c1ccccc1` [MIT 9952-4], the “ENDOHDL Test 1” value was 1.17 and the “ENDOHDL Test 2” value was 1.33.

With `Cc1cccc(/C=N/Nc2nc(C)nc(C)n2)c1` [MIT 9952-270] the “ENDOHDL Test 1” value was 0.66 and the “ENDOHDL Test 2” value was 0.66.

`O=C(NC(NC(=S)Nc1cccc2ccccc12)C(Cl)(Cl)Cl)c1cccc([N+](=O)[O-])c1` (stereo not drawn) [MIT 9952-102] was tested, and the “ENDOHDL Test 1” value was 0.56 and the “ENDOHDL Test 2” value was 0.49.

For `O=C(CSC1=NCCN1)Nc1ccccc1` [MIT 9952-67], the “ENDOHDL Test 1” value was 0.55 and the “ENDOHDL Test 2” value was 0.54.

For `CC(C)(C)c1ccc(C(=O)Nc2cccc(NC(=O)c3cccc([N+](=O)[O-])c3)c2)cc1` [MIT 9952-214], the “ENDOHDL Test 1” value was 0.63 and the “ENDOHDL Test 2” value was 0.35.

With `CCn1c(/C=C/C=C2\SCCN2C)[n+](CC)c2cc(Cl)ccc21` [MIT 9952-92] the “ENDOHDL Test 1” value was 0.7 and the “ENDOHDL Test 2” value was 0.63.

In the case of `O=C1CC(S/C(=N\c2ccccc2)Nc2ccccc2)C(=O)N1c1cccc2ccccc12` (stereo not drawn) [MIT 9952-171], the “ENDOHDL Test 1” value is reported as 0.58 and the “ENDOHDL Test 2” value is reported as 0.54.

In the case of `Brc1ccc2c(c1)OCCSCCOCCOCCSCCO2` [MIT 9952-244], the “ENDOHDL Test 1” value is reported as 0.56 and the “ENDOHDL Test 2” value is reported as 0.54.
